Results taken from patent publication US8802695B2, “Apoptosis signal-regulating kinase 1 inhibitors” (Takeda Pharmaceutical Company Limited, priority 2010, dated 2014).

Legend:
ASK1 [1] = molecular target: T1, ASK1 (Homo sapiens (Human), UniProt Q99683); experiment: Homogeneous Time-Resolved Fluorescence (HTRF) assay for inhibitory effect against ASK1 (Example C; KinEASE STK S3 kit); type: biochemical; conditions: 25 nM ASK1, 100 μM ATP, read-out: Enzyme Activity C IC50
Text: (§1) The inhibitory effect of the compound of the invention on ASK1 may be evaluated by evaluating the phosphorylating activity of the enzyme on a known substrate with or without the presence of the test compound. Example B provides such an assay where myelin basic protein (Wako) is used as substrate and detection is by scintillation counting. It should be understood other substrates and detection mechanism may be used. A commercially available a kit, Cisbio's HTRF® KinEASE™ STK kit, has shown to be useful for evaluating ASK1 activity. The assay uses an anti-phosphoseric specific, Eu^3+-Cryptate labeled antibody to mark the phosphorylated product of ASK1 on a biotinylated kinase substrate, and detection is by time resolved fluorescence using XL665 labeled streptavidin. The fluorescence intensity is proportional to the amount of product formation. Example C provides the assay protocol.
Homogeneous Time-Resolved Fluorescence (HTRF) Assay for Measuring the Inhibitory Effect of Exemplified Compounds of the Invention Against ASK1
Recombinant human ASK1 is purchased from Millipore (Cat #14-606). The enzymatic assay of ASK1 is set up by using HTRF® KinEASE™ STK S3 kit, the Universal Assay for Serine/Threonine Kinases kit from CisBio.
The inhibitory properties of compounds to ASK1 may be determined using a white 384-well-plate format under the following reaction conditions: 25 nM ASK1, 1 μM CisBio STK S3-biotion peptide, 100 μM ATP, and 1%-2% DMSO in kinase assay buffer of 50 mM HEPES, pH 7.3, 10 mM NaCl, 10 mM MgCl2, 0.01% Brij35, 0.2 mM EDTA, and 1 mM DTT. Reaction product is determined quantitatively by HTRF after the addition of detection reagent SA-XL665 and STK-antibody-cryptate.
The assay reaction may be initiated as follows: 2 μl of the mixture of 3 μM CisBio STK S3-biotion peptide and 300 μM ATP with 2 μl of test compound (2 fold serial dilutions for 11 data points for each inhibitor) containing 3%-6% DMSO are added to each well of the plate, followed by the addition of 2 μL of 75 nM ASK1 to initiate the reaction (final enzyme concentration was 25 nM for ASK1). The reaction mixture may then be incubated at room temperature for 1 hour, and quenched and developed by the addition of 6 μL of 100-fold diluted STK-antibody-Cryptate and 250 nM SA-XL665 in Cisbio HTRF detection buffer (50 mM HEPES, pH7.0, 0.1% BSA, 0.8 M KF, and 20 mM EDTA). The fluorescence intensity is measured at 620 nm (Cryptate) and 665 nm (XL665) after a 1-2 hour incubation at room temperature. A ratio is calculated (665/620) for each well and is fitted to the standard IC50 curve to determine inhibition constants (IC50).
Target sequence in this assay (Q99683 649-946): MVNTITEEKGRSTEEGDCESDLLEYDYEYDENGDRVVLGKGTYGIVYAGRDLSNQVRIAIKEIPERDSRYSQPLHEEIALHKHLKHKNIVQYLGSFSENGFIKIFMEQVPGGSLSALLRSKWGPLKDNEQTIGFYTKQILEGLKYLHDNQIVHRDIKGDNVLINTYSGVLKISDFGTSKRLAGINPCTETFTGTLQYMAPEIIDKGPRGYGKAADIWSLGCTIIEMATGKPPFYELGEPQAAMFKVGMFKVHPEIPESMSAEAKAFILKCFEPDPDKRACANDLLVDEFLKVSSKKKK

ASK1 [2] = molecular target: T1, ASK1; experiment: Scintillation assay for inhibitory effect against ASK1 (Example B; myelin basic protein substrate, [γ-32P]ATP); type: biochemical; conditions: 2.5 μM ATP solution, read-out: Enzyme Activity B IC50
Text: as §1
Target sequence in this assay (Q99683 650-1374): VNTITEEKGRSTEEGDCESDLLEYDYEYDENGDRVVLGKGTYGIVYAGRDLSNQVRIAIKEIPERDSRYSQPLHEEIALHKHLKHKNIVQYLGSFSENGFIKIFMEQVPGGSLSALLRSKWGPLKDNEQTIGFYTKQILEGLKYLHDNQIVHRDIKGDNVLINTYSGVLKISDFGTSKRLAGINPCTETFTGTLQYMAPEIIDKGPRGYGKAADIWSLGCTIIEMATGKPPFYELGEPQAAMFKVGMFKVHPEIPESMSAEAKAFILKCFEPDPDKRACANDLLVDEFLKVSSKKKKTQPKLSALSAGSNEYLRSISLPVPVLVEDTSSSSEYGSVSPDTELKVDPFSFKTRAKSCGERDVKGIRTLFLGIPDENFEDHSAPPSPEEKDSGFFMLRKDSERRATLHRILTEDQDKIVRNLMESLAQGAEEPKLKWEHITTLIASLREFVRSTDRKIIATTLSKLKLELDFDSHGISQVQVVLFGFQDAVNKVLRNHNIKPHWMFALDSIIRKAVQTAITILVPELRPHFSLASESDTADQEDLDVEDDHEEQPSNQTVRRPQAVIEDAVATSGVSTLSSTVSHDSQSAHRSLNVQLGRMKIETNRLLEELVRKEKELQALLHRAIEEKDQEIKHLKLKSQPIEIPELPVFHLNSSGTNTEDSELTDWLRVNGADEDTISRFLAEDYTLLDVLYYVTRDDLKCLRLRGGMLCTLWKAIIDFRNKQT
Cloning of cDNA encoding human ASK1 was conducted by PCR using primers, 5′-[…] […]-3′ (SEQ ID NO: 1) and 5′-AAAGCGGCCGCTCAA […]-3′ (SEQ ID NO: 2), from human heart cDNA library (Becton, Dickinson and Company). The PCR product was subjected to agarose gel (1%) electrophoresis, a 2.2 kb DNA fragment containing an ASK1 gene was recovered from the gel, and then digested with restriction enzymes, NotI and SalI, and inserted into a plasmid pFASTBAC1 (Invitrogen) to prepare a plasmid pFB-ASK1. The insert was verified by sequencing. Recombinant baculovirus was prepared according to the procedure of the Bac-to-Bac baculovirus expression system (Invitrogen).
Sf-21 cells were seeded to achieve 1×10^6 cells/mL in 100 mL of Sf-900 II SFM medium (Invitrogen) which contains 10% fetal calf serum and then cultured at 27° C. for 24 hrs. To express ASK1 in cells, 0.15 mL of the recombinant baculovirus virus stock was added to cells, and the then cultured for 60 hrs. The cells were separated from the culture solution by centrifugation at 3000 rpm for 10 min and washed once with PBS. The cells were suspended in 10 mL of lysis buffer (25 mM HEPES (pH 7.5), 1% Triton X, 130 mM NaCl, 1 mM EDTA, 1 mM DTT, 25 mM (3-glycerophosphate, Protease inhibitor complete (Roche), 1 mM sodium orthovanadate) and ruptured by four times of treatment with a homogenizer (POLYTRON) at 20000 rpm for 30 seconds. Active ASK1 protein was purified from a supernatant obtained by centrifugal separation at 40000 rpm for 45 min using anti-FLAG M2 Affinity Gel (Sigma).
Scintillation Assay for Measuring the Inhibitory Effect of Exemplified Compounds of the Invention Against ASK1
The test compounds (2.5 μL) dissolved in DMSO were added to wells containing 37.5 μL of the reaction solution (25 mM HEPES (pH 7.5), 10 mM magnesium acetate, 1 mM DTT) including 30 ng of active ASK1 protein and 1 μg of myelin basic protein (Wako), and incubated at room temperature for 5 min. To start the reaction, 10 μL of ATP solution (2.5 μM ATP, 0.1 μCi [γ-^32P]ATP) was added to wells. After incubating at room temperature for 30 min, the reaction was terminated by adding 50 μL of 20% TCA solution. The reaction solution was incubated at 4° C. for 30 min and an acid-insoluble fraction was transferred onto a GF/C filter (Packard) with Cell Harvester (Packard), and washed with 250 mM phosphoric acid. After drying at 45° C. for 60 min., 40 μL of Microscint 0 (Packard) was added and the radioactivity was measured with TopCount (Packard). The concentrations (IC50 value) of the test compounds necessary for 50% inhibition of kinase activity were calculated by PRISM 3.0 (Graphpad Software).

melting point [°C] | IC50 (ASK1 [1]) [nM] | IC50 (ASK1 [2]) [nM] | SMILES
210 to 212 | 19 | – | Cn1cc(Cl)c2cnc(NC(=O)c3ccc([C@@](C)(O)CO)cc3)cc21 [Compound 31, (R)—N-(3-chloro-1-methyl-1H-pyrrolo[3,2-c]pyridin-6-yl)-4-(1,2-dihydroxypropan-2-yl)benzamide]
223 to 223.9 | 12 | 9 | CCn1cc(Cl)c2cnc(NC(=O)c3ccc([C@](C)(O)CO)cc3)cc21 [Compound 26, (S)—N-(3-chloro-1-ethyl-1H-pyrrolo[3,2-c]pyridin-6-yl)-4-(1,2-dihydroxypropan-2-yl)benzamide]
224.4 to 225.1 | 16 | 6 | CCn1cc(Cl)c2cnc(NC(=O)c3ccc([C@@](C)(O)CO)cc3)cc21 [Compound 14, (R)—N-(3-chloro-1-ethyl-1H-pyrrolo[3,2-c]pyridin-6-yl)-4-(1,2-dihydroxypropan-2-yl)benzamide]
